The record followed here is patent US10450314B2, “Pteridine derivatives as modulators of ROR gamma” (Boehringer Ingelheim International GmbH, priority 2015, dated 2019).

One data set concerns the target T1, RORγ (Homo sapiens, UniProt P51449).
T1 construct: expressed in transfected cells; host or cells: HEK 293 cells, transiently cotransfected with pGL4.3 luc2P/GAL4UAS/Hygro reporter
T1 sequence (P51449 269-508 limits assumed): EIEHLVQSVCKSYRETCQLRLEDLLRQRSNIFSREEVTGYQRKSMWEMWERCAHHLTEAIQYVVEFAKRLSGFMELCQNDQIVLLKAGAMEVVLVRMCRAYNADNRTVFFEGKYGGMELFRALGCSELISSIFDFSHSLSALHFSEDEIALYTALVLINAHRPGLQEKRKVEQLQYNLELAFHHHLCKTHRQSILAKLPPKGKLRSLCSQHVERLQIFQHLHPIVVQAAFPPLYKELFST
The data set can be described thus: RORγ Reporter Gene Assay (RGA), luciferase transactivation in transiently transfected HEK 293 cells. The following applies: HEK 293 cells cotransfected with pGL4.3 luc2P/GAL4UAS and pBIND Gal4DBD hRORC LBD; 20-24 h incubation. The data set is classed as cell-based.

Data set [1] in a line: Human liver microsome (HLM) metabolic stability assay. The data set is classed as in vitro ADME. Conditions: human liver microsomes, 1 uM compound, 37° C., 60 min; % hepatic blood flow. An outline of the steps: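 Parent remaining measured by LC/MS/MS (ESI, MRM) at 5, 15, 30 and 60 min relative to 0 min, after acetonitrile quench. Incubation: 1 uM compound, human liver microsomes, NADPH-started, 37° C, 60 min total, single replicate. Half-life from slope of ln % remaining versus time; clearance parameters derived.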

For the molecule `Cc1ncnc(C2CC2)c1-c1nc(C)c2nc(NCc3ccc(S(C)(=N)=O)cc3)c(=O)n([C@@H](C)C3CC3)c2n1` (single isomer, unassigned) [Example 27b], the IC50 against RORγ came to 265 nM. In data set [1], the “HLM (% Qh)” value is given as under 24 % Qh.
For `CC[C@@H](C)n1c(=O)c(NCc2ccc(S(=N)(=O)CC)cc2)nc2c(C)nc(-c3c(C)ncnc3C3CC3)nc21` (single isomer, unassigned) [Example 26a], at RORγ, half-maximal inhibition (IC50) required 109 nM. The “HLM (% Qh)” value in data set [1] is on record as 25 % Qh.
Turning to `Cc1ncnc(C2CC2)c1-c1nc(C)c2nc(NCc3ccc(S(C)(=O)=O)cn3)c(=O)n([C@@H](C)C3CC3)c2n1` [Example 9], the IC50 against RORγ stood at 70 nM. For the same molecule, in data set [1], the “HLM (% Qh)” value is listed as under 24 % Qh.
As to `Cc1ncnc(C2CC2)c1-c1nc(C)c2nc(NCc3ccc(S(C)(=N)=O)cc3)c(=O)n([C@@H](C)C(F)(F)F)c2n1` (single isomer, unassigned) [Example 91a], it took 295 nM to reach half-maximal inhibition at RORγ (IC50). In addition, the “HLM (% Qh)” value in data set [1] is under 24 % Qh.
On to `COc1ncnc(C2CC2)c1-c1nc(C)c2nc(NCc3ccc(S(N)(=O)=O)cn3)c(=O)n([C@@H](C)C3CC3)c2n1` [Example 62], for which the IC50 at RORγ was 125 nM. Also, in data set [1], the “HLM (% Qh)” value is 27 % Qh.
Regarding `CC[C@@H](C)n1c(=O)c(NCc2ccc(S(C)(=O)=O)cn2)nc2c(CO)nc(-c3c(C)ncnc3C3CC3)nc21` [Example 52], the IC50 against RORγ is 335 nM. The “HLM (% Qh)” value in data set [1] is on record as under 24 % Qh.
In the same order, the values of `CC[C@@H](C)n1c(=O)c(NCc2ncc(S(=O)(=O)CC)cn2)nc2c(C)nc(-c3c(OC)ncnc3C3CC3)nc21` [Example 4] are 180 nM and under 24 % Qh.
At RORγ, `CC[C@H](C)n1c(=O)c(NCc2ncc(S(=O)(=O)CC)cn2)nc2c(C)nc(-c3c(C)ncnc3C3CC3)nc21` [Example 16] returned an IC50 of 113 nM. Besides, in data set [1], the “HLM (% Qh)” value was under 24 % Qh.
As for `Cc1ncnc(C2CC2)c1-c1nc(C)c2nc(NCc3ccc(S(C)(=O)=O)cn3)c(=O)n([C@@H](C)CF)c2n1` [Example 49], the IC50 at RORγ came to 4200 nM. For the same molecule, the “HLM (% Qh)” value in data set [1] is reported as under 24 % Qh.
Molecule `CCS(=N)(=O)c1ccc(CNc2nc3c(C)nc(-c4c(C)ncnc4C4CC4)nc3n([C@@H](C)C3CC3)c2=O)nc1` (single isomer, unassigned) [Example 42a] registered an IC50 at RORγ of 270 nM. For the same molecule, in data set [1], the “HLM (% Qh)” value was under 24 % Qh.
Turning to `COc1ncnc(C2CC2)c1-c1nc(C)c2nc(NCc3ccc(S(C)(=N)=O)cn3)c(=O)n([C@@H](C)C(F)(F)F)c2n1` (single isomer, unassigned) [Example 105a], the IC50 on RORγ came out at 890 nM. Besides, the “HLM (% Qh)” value in data set [1] is on record as under 24 % Qh.
Consider `CC[C@H](C)n1c(=O)c(NCc2ccc(S(N)(=O)=O)cn2)nc2c(C)nc(-c3c(OC)ncnc3C3CC3)nc21` [Example 81], for which, on RORγ, it took 185 nM to reach half-maximal inhibition (IC50). In data set [1], the “HLM (% Qh)” value was under 24 % Qh.
`Cc1ncnc(C2CC2)c1-c1nc(C)c2nc(NCc3ccc(S(C)(=O)=O)nc3)c(=O)n([C@@H](C)C3CC3)c2n1` [Example 7]: on RORγ, the IC50 was 70 nM. Besides, the “HLM (% Qh)” value in data set [1] stood at 33 % Qh.
In the same order, the values of `CCS(=N)(=O)c1ccc(CNc2nc3c(C)nc(-c4c(C)ncnc4C4CC4)nc3n([C@@H](C)C3CC3)c2=O)nc1` (single isomer, unassigned) [Example 42b] are 390 nM and under 24 % Qh.
As to `Cc1ncnc(C2CC2)c1-c1nc(C)c2nc(NCc3ccc(S(C)(=N)=O)cn3)c(=O)n([C@@H](C)C(F)(F)F)c2n1` (single isomer, unassigned) [Example 106b], the IC50 at RORγ is 840 nM. Besides, the “HLM (% Qh)” value in data set [1] was 28 % Qh.
Take `CC[C@@H](C)n1c(=O)c(NCc2ccc(S(C)(=O)=O)cn2)nc2c(C)nc(-c3c(C)ncnc3C3CC3)nc21` [Example 73]: the IC50 at RORγ stood at 155 nM. Moreover, in data set [1], the “HLM (% Qh)” value is recorded as under 24 % Qh.
On RORγ, `CCS(=O)(=O)c1cnc(CNc2nc3c(C)nc(-c4c(C)ncnc4C4CC4)nc3n([C@H](C)C(F)F)c2=O)nc1` [Example 93] registered an IC50 of 185 nM. Besides, the “HLM (% Qh)” value in data set [1] is reported as under 24 % Qh.
In the same order, the values of `CC[C@@H](C)n1c(=O)c(NCc2ccc(S(=O)(=O)CC)cn2)nc2c(OC)nc(-c3c(C)ncnc3C3CC3)nc21` [Example 21] are 1900 nM and under 24 % Qh.
In the same order, the values of `CC[C@H](C)n1c(=O)c(NCc2ccc(S(C)(=O)=O)nc2)nc2c(C)nc(-c3c(OC)ncnc3C3CC3)nc21` [Example 11] are 135 nM and 26 % Qh.
In the same order, the values of `CC[C@H](C)n1c(=O)c(NCc2ccc(S(=O)(=O)CC)nc2)nc2c(C)nc(-c3c(C)ncnc3C3CC3)nc21` [Example 64] are 95 nM and under 24 % Qh.
`CCS(=O)(=O)c1cnc(CNc2nc3c(C)nc(-c4c(C)ncnc4C4CC4)nc3n([C@@H](C)C(F)(F)F)c2=O)nc1` [Example 23] displayed an IC50 against RORγ of 178 nM. In addition, the “HLM (% Qh)” value in data set [1] was under 24 % Qh.
In the case of `CCS(=N)(=O)c1ccc(CNc2nc3c(C)nc(-c4c(C)ncnc4C4CC4)nc3n([C@@H](C)C3CC3)c2=O)cc1` (single isomer, unassigned) [Example 36b], at RORγ, the IC50 amounted to 245 nM. Moreover, the “HLM (% Qh)” value in data set [1] is under 24 % Qh.
At RORγ, `COc1ncnc(C2CC2)c1-c1nc(C)c2nc(NCc3ccc(S(C)(=O)=O)cn3)c(=O)n([C@@H](C)C3CC3)c2n1` [Example 5] registered an IC50 of 73 nM. Also, the “HLM (% Qh)” value in data set [1] was determined as 28 % Qh.
